# According to article PMC11879040, “Advancing systemic toxicity risk assessment: Evaluation of a NAM-based toolbox approach” (Toxicological Sciences, 2024):
# Where two headings read alike, the source gives them in different places.
# How the values were obtained:
# [1] = target: T1, Cholecystokinin receptor type A, CCKAR (h) (Homo sapiens, UniProt P32238); assay: IPP CCKAR binding (agonist radioligand); settings: control CCK-8s
# T1 sequence (P32238 1-428): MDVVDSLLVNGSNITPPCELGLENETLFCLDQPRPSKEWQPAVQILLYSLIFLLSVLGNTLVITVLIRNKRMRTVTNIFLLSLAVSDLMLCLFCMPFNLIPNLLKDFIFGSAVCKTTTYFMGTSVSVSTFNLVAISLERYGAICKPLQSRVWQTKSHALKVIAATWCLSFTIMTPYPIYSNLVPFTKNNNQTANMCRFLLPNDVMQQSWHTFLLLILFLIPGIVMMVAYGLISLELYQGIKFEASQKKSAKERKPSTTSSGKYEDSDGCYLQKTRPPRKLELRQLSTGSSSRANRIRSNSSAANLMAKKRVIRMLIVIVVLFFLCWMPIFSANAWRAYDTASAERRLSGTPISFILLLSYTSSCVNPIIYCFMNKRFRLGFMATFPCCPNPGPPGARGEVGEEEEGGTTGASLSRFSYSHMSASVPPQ
# [2] = target: Histamine H1 receptor, HRH1 (h) (Homo sapiens, UniProt P35367); assay: IPP HRH1 binding (antagonist radioligand); settings: control pyrilamine
# Histamine H1 receptor, HRH1 (h), sequence (P35367 whole entry): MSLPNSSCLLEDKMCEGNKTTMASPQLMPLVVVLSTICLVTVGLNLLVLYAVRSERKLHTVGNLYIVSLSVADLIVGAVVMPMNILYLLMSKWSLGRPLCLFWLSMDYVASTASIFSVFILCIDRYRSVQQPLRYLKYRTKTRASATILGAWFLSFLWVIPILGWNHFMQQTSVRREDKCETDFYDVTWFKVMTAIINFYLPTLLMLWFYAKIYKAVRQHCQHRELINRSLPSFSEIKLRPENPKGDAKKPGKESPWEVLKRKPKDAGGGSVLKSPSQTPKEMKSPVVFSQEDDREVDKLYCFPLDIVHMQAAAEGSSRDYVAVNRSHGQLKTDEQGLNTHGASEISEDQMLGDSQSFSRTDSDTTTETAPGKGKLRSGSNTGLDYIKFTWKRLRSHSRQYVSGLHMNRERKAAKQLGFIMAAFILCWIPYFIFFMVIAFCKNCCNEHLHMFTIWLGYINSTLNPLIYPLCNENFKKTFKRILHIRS
# [3] = target: T2, Prostaglandin G/H synthase 2, PTGS2 (h) (Homo sapiens, UniProt P35354); assay: IPP PTGS2 enzymatic activity; type: biochemical; settings: control NS398
# T2 sequence (P35354 18-604): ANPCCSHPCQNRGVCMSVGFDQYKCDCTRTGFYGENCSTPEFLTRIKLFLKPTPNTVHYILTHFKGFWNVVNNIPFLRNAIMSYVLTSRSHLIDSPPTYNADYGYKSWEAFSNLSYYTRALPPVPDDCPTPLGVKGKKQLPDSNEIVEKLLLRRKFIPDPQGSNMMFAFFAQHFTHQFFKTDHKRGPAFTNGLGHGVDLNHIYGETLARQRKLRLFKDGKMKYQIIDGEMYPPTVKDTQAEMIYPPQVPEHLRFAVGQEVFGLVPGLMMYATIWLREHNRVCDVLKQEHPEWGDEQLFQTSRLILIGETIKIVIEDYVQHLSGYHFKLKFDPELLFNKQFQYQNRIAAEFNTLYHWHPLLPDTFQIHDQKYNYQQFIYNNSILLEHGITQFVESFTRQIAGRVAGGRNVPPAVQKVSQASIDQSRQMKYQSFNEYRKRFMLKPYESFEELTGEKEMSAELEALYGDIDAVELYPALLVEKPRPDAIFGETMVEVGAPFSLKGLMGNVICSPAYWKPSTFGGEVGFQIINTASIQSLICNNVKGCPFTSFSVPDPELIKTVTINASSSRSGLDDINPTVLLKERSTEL
# [4] = target: T3, Estrogen receptor, ER1 (h) (Homo sapiens, UniProt P03372); assay: IPP ER1 coactivator recruitment (antagonist); type: biochemical; settings: estriol
# T3 construct: purchased Eurofins Cerep (SafetyScreen44-based IPP panel)
# T3 sequence (P03372 1-595): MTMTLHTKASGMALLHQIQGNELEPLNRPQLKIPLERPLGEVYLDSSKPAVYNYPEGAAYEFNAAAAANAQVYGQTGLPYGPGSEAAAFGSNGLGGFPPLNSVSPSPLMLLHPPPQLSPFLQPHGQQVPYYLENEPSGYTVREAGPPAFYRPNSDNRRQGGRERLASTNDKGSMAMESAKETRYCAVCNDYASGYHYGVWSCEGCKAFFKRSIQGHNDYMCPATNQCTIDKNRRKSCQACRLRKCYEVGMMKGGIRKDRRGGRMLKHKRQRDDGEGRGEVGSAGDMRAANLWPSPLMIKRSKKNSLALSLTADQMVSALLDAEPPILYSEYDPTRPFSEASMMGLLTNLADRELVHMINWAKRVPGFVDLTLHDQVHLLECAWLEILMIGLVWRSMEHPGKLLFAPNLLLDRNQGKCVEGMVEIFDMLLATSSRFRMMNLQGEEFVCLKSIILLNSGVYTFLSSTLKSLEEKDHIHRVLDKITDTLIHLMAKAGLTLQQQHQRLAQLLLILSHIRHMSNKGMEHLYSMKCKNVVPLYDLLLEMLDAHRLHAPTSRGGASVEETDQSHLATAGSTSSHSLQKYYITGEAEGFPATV
# [5] = target: Acetylcholinesterase, ACHE (h) (Homo sapiens, UniProt P22303); type: biochemical; settings: control galanthamine
# Acetylcholinesterase, ACHE (h), sequence (P22303 32-614): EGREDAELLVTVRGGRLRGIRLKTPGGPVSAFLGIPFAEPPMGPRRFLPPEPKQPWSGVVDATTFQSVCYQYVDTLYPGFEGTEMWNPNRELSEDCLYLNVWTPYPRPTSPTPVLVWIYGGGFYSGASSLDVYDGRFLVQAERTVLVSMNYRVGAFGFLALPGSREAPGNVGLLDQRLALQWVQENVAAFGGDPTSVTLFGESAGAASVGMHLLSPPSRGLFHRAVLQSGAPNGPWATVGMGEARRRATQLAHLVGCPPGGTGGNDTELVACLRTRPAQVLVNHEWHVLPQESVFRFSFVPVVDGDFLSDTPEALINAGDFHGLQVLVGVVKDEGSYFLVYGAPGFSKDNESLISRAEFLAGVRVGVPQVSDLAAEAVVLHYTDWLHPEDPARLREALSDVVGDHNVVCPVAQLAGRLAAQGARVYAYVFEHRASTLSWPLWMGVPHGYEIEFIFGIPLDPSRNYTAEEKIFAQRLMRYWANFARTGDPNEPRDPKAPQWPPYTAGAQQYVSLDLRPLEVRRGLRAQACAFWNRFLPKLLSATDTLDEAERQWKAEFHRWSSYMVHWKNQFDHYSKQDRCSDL
# [6] = tested on: Glutamate receptor ionotropic NMDA 1 non-selective, GRIN1 (r)
# [7] = target: T4, Muscarinic acetylcholine receptor M1, CHRM1 (h) (Homo sapiens, UniProt P11229); type: binding; settings: control pirenzepine
# T4 construct: purchased Eurofins Cerep (SafetyScreen44-based IPP panel)
# T4 sequence (P11229 1-460): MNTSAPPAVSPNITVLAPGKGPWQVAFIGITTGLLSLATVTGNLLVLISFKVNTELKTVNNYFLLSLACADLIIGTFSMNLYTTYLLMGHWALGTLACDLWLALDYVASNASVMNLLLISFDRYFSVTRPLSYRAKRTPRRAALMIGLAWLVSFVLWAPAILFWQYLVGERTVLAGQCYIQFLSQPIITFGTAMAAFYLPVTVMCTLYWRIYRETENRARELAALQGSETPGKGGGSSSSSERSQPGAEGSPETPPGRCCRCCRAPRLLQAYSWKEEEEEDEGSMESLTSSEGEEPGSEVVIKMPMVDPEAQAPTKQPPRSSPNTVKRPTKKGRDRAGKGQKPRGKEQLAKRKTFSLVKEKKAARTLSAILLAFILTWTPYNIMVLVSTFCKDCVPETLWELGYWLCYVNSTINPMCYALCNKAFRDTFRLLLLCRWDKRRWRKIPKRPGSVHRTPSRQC
# [8] = target: cGMP-inhibited 3',5'-cyclic phosphodiesterase A, PDE3A (h) (Homo sapiens, UniProt Q14432); assay: IPP PDE3A enzymatic activity; type: biochemical; settings: control milrinone
# cGMP-inhibited 3',5'-cyclic phosphodiesterase A, PDE3A (h), sequence (Q14432 whole entry): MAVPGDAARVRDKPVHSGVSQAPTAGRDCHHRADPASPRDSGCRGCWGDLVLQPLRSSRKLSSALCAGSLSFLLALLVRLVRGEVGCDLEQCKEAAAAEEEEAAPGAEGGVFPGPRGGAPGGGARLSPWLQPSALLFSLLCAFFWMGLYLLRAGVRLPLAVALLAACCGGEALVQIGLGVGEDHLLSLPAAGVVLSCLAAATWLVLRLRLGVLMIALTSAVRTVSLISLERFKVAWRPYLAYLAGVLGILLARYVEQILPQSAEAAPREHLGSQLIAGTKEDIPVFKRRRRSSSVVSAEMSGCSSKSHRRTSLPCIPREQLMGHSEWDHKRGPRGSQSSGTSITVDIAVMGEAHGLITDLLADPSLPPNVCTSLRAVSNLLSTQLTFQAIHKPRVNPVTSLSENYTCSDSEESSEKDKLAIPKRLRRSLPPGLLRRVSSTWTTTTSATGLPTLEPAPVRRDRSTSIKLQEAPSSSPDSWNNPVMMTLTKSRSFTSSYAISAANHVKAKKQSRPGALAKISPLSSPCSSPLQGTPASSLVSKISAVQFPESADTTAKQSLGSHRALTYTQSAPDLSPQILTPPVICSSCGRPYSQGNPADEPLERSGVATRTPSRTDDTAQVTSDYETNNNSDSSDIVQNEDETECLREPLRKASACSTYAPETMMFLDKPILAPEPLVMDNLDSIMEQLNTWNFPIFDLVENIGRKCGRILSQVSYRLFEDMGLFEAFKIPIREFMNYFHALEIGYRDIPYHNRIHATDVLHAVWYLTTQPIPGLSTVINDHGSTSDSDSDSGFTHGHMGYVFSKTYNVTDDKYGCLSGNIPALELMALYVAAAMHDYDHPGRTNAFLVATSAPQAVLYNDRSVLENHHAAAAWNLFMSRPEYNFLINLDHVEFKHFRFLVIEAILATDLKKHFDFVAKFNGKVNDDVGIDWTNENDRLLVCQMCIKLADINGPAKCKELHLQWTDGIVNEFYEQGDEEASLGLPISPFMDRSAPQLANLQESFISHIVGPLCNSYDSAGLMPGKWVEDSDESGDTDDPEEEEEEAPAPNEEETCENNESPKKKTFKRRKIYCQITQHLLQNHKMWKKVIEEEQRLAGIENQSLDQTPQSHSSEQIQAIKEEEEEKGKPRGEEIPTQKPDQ
# HepG2 cells = assay: High-throughput transcriptomics (HTTr, TempO-Seq), HepG2, 24 h; type: cell-based, human; settings: HepG2; for pod_httr_bifrost PoD: HTTr BIFROST PoD; for podl_path_minbmd PoD: HTTr minimum pathway BMD(L)
# Procedure: HepG2, HepaRG, and MCF7 cells were treated with each compound for 24 h across a dose range of 7 concentrations and lysed using TempO-Seq lysis buffer (BioSpyder Technologies, proprietary kit, see [Middleton et al. 2022] for method details). Sequencing was performed using TempO-Seq (BioClavis) version 2 of the human whole transcriptome panel and analyzed as described previously in Middleton et al.
# [9] = target: T3, Estrogen receptor, ER1 (h); assay: IPP ER1 coactivator recruitment (agonist); type: biochemical; settings: estriol
# [10] = IPP screening at 10 uM, control CGS 19755
# [11] = 100 uM, * denotes assay interference (2-Amino-6-chloro-4-nitrophenol, HC Red 3)
Compound,Specific binding ([1]; IPP screening at 10 uM),Specific binding ([2]; IPP screening at 10 uM),Enzymatic activity ([3]; IPP screening at 10 uM),"IPP screening %, Coactivator recruitment ([4]; 10 uM)",Enzymatic activity ([5]; IPP screening at 10 uM),"Specific binding [6, 10]",Specific binding ([7]; IPP screening at 10 uM),Enzymatic activity ([8]; IPP screening at 10 uM),pod_httr_bifrost PoD (HepG2 cells),podl_path_minbmd PoD (HepG2 cells),"IPP screening %, Coactivator recruitment ([9]; 10 uM)",other results
"CCOP(=S)(OCC)Oc1nc(Cl)c(Cl)cc1Cl [Chlorpyrifos, O,O-Diethyl O-(3,5,6-trichloropyridin-2-yl) phosphorothioate]",55.2%,17.6%,-4.1%,9.0%,-10.5%,0.2%,-5.6%,36.9%,0.000303 µM,2.42 µM,-1.0%,
"CC(C)(C)c1ccc(CCOc2ncnc3ccccc23)cc1 [Fenazaquin, 4-[2-(4-tert-Butylphenyl)ethoxy]quinazoline]",60.9%,37.0%,0.8%,4.0%,-0.7%,0.6%,12.0%,32.4%,0.0002567 µM,0.002178 µM,-2.0%,
"CC1(C)O[C@@H]2[C@@H](CO[C@@]3(COS(N)(=O)=O)OC(C)(C)O[C@@H]23)O1 [Topiramate, [(3aS,5aR,8aR,8bS)-2,2,7,7-Tetramethyltetrahydro-2H,3aH,7H-bis[1,3]dioxolo[4,5-b:4',5'-d]pyran-3a-yl]methyl sulfamate (non-preferred name)]",,,,,,,,,3696.73 µM,6631.79 µM,,"Specific binding ([1]; IPP screening at 100 uM): 9.6%; Specific binding ([2]; IPP screening at 100 uM): 5.8%; Enzymatic activity ([3]; IPP screening at 100 uM): 4.1%; IPP screening %, Coactivator recruitment [4, 11]: -1.0%; Enzymatic activity ([5]; IPP screening at 100 uM): -0.1%; Specific binding ([6]; IPP screening at 100 uM, control CGS 19755): -5.1%; Specific binding ([7]; IPP screening at 100 uM): 12.2%; Enzymatic activity ([8]; IPP screening at 100 uM): 12%; IPP screening %, Coactivator recruitment [9, 11]: -1.0%"
"(4S,4aR,5S,5aR,6S,12aS)-4-(Dimethylamino)-3,5,6,10,12,12a-hexahydroxy-6-methyl-1,11-dioxo-1,4,4a,5,5a,6,11,12a-octahydrotetracene-2-carboxamide--hydrogen chloride (1/1) [Oxytetracycline hydrochloride]",7.8%,,14.5%,,,2.8%,,30.0%,,,,
mixture of 2- and 3-tert-butyl-4-methoxyphenol [Butylated Hydroxyanisole],4.2%,-2.1%,62.4%,,5.9%,,8.4%,22.6%,,,,Specific binding [6]: 2.2%
